According to patent US20140378395A1, “Peptides for the Treatment of Hearing” (13Therapeutics, Inc., priority 2011, published 2014):
No end group written: not given here.

Key:
BALB/c mice [1] = test: Effects of peptide on middle ear without added bacteria; type: in vivo, mouse; details: 10 μM, no bacteria, 3 days; p=0.104, 0.880, 0.891
Protocol: BALB/c (Bagg albino) mice, about 8-12 weeks of age, are anesthetized with a subcutaneous injection of xylazine & ketamine (about 0.1 mg/30 gm body weight) and their ears examined under the operating microscope to assure they are free of infection or perforation. One group of animals is injected with PBS (Phospho-buffered saline) in one ear and with about 10 μM of a peptide of Table 1 in the opposite ear, to determine the effect of peptide without added bacteria. A second group of animals receive about 5.0 μl of PBS plus heat-inactivated S. pneumoniae (about 10^9 CFU/ml) in one ear and about 5.0 μl of peptide (about 10 μM) plus heat-inactivated S. pneumoniae (about 10^9 CFU/ml) in the opposite ear. […] Inflammation is quantified by measuring 1) area of fluid present in the middle ear; 2) number of cells in middle ear fluid; and 3) thickness of the tympanic membrane (TM) taken at a point away from the injection site. Data are obtained from mice (n=18) injected with PBS alone for each of the histological parameters measured, to serve as a control group.
Five mice were injected in one ear with PBS and in the opposite ear with 10 μM peptide P13 (SEQ ID NO: 369). Three days later the animals were killed, and the middle ears embedded, sectioned, stained and evaluated for fluid area, infiltrating cell number, and thickness of the tympanic membrane. […]

BALB/c mice [2] = test: Ototoxicity of topical administration in normal mice, ABR; type: in vivo, mouse; details: 1, 10, 10 (twice) or 60 μg/30 μL topically; ABR 1-4 weeks
Protocol: P13 (SEQ ID NO: 369) was investigated for possible negative impact on hearing in normal mice upon administration by ear drops. BALB/c mice, 16 weeks of age, (n=16) received two baseline auditory brainstem response (ABR) tests one week apart, and an otoscopic exam in both ears. ABR stimuli consisted of 20 tone-burst trains at 4 kHz, 8 kHz, 16 kHz and 32 kHz at five intensity levels in 10 dB steps, as previously described. An otoscopic exam was performed using an operating microscope to establish the clinical symptoms of AOM, as previously described. Any animal with an abnormal ABR or exam on pre-screen was not entered into the study.
All 16 animals remained in the study and were divided into five groups as follows:
group 1: (n=6 ears) 1 μg P13 (SEQ ID NO: 369)/30 μl, topically, given once;
group 2: (n=7 ears) 10 μg P13 (SEQ ID NO: 369)/30 μL, topically, given once;
group 3: (n=7 ears) 10 μg P13 (SEQ ID NO: 369)/30 μL, topically, given twice, 24 hours apart;
group 4: (n=6 ears) 60 μg P13 (SEQ ID NO: 369)/30 μL, topically, given once; and
ABRs were performed at one, two, three and four weeks post P13 (SEQ ID NO: 369) treatment. The two baseline ABRs were averaged and compared to the ABRs post P13 (SEQ ID NO: 369) treatment.

[3] = test system: TNF-α production in RAW264.7 cells; type: cell-based, murine; details: 30 μg/mL, 15 minutes pre-incubation, 4 hours

Sequence | differences between PBS-injected ear and P13-injected ear in fluid area, cell number, tympanic membrane thickness (BALB/c mice [1]) | impact on hearing thresholds in normal mice (ototoxicity) (BALB/c mice [2]) | NCE-stimulated TNF-α production compared to control peptide [3]
DIVKLTVYDCI [Peptide P13, DIVKLTVYDCI] | no differences | did not negatively impact hearing thresholds | –
EEYFMYRGLLGLRIKYG [Peptide P7] | – | – | significantly inhibited
